Assay results from patent US11235023B2, “Beta-hairpin peptidomimetic with elastase inhibitory activity and aerosol dosage forms thereof” (POLYPHOR AG, priority 2016, dated 2022).
Where two headings read alike, the source gives them in different places. Non-standard residues stand in square brackets, D forms with d. Residues, ends and D or L forms follow the SMILES beside them. Gly(octyl) = CCCCCCCC[C@H](N)C(=O)O

What was measured:
[1] = GLP-compliant 28-day inhalation toxicity study in rats; assay type: in vivo, rat
Experimental: In a GLP-compliant 28-day inhalation toxicity study in rats, conducted by Charles River Laboratories Preclinical Services, Tranent, Edinburgh, UK, the formulation described in Example 2 and dilutions thereof as well as the vehicle were administered using the Pari eFlow® XL 30 nebulizer device (Pari Pharma, Starnberg, Germany) for 100 min per day for 28 days, followed by a 2-week recovery period. […] Ten animals were used for the main toxicity study, and 5 additional animals for the recovery phase. Parameters assessed included clinical signs, body weights, food consumption, ophthalmic examination, clinical pathology, gross necropsy findings, organ weights and histopathologic examinations. […] This was associated with reduction in food consumption in treated animals. There was a good recovery in body weight gain during the recovery period between day 28 and 42.

[2] = First-in-man study in healthy subjects, safety and tolerability of orally inhaled single doses; assay type: in vivo, human
From the text: In this randomised, double-blind, placebo-controlled, parallel-group (per dose level) dose-escalation study of inhaled single doses in 48 healthy subjects in six dose groups of eight subjects each, conducted by Inamed GmbH, Gauting, Germany, the controlled oral inhalation of the formulation described in Example 1 and dilutions thereof as well as the placebo (0.5% [w/w] aqueous sodium chloride solution adjusted to pH 5.5 with 1 M HCl pharmaceutical grade) occurred via the Pari eFlow® XL 30 nebulizer device (Pari Pharma GmbH, Starnberg, Germany). The dose levels and corresponding concentrations of cyclo(-OctG-Glu-Thr-Ala-Ser-Ile-Pro-Pro-Gln-Lys-Tyr-^DPro-Pro-) (active compound) are summarized in Table 10.
The volume of placebo nebulizer solution corresponded to that of the active compound at a particular dose level. The duration of inhalation depended on the total volume of nebulizer solution and ranged between several minutes and roughly one hour. Adverse events were tabulated and summarized according to the current version of Medical Dictionary for Regulatory Activities.

[3] = Phase-Ib study in CF patients, plasma pharmacokinetics (LC-MS/MS); assay type: in vivo; conditions: human, inhaled or intranasal; for Tmax: inhalation, CF patients; for level at 24 h: read-out: mean plasma concentration 24 hours after inhalation; for half-life: read-out: mean terminal half-life (plasma) (converted)
Experimental: AUC0-∞, AUC0-∞/D, Cmax, Cmax/D of active compound in plasma as primary variables and tmax, t1/2, λ2, […] of active compound in plasma as secondary variables.
Blood samples for the determination of the plasma concentrations of active compound were taken at the following points in time:
On Day 1 at pre-dose, 10 min, and 0.5 h, 1 h, 2 h, 3 h, 4 h, 6 h, 8 h, 12 h, 15 h, and on Day 2 at 24 h post dose (after start of inhalation).
The samples were collected in closed K3-EDTA plasma sampling tubes (Monovette® Sarstedt, Germany). The accepted time-interval for sample handling procedures for each individual study sample, i.e., the time between sample collection and sample centrifugation had not to exceed 60 min, and the time between the end of centrifugation and sample freezing had also not to exceed 60 min.
The samples were centrifuged at approximately 4° C. (±2° C.) at 2200×g for 15 min.
The resulting plasma supernatant was then transferred into 2 polypropylene tubes (1st aliquot of at least 1 mL and backup) and frozen in upright position below […]
For the analysis of active compound in plasma, a validated and highly sensitive liquid chromatography tandem mass spectrometry (LC-MS/MS) method was used.
(§1) The pharmacokinetic parameters mentioned above were calculated based on actual blood and sputum sampling times using non-compartmental procedures.

[4] = Phase-Ib study in CF patients, sputum concentrations (LC-MS/MS); assay type: in vivo, human
Experimental: Concentrations of active compound in sputum were calculated and Cmax and AUC0-tlast were determined.
Spontaneous sputum samples for PK assessments were collected during the following time intervals/periods:
On Day −1 as soon as possible after the subject's arrival at the study site (blank PK), on Day 1 in the period of time between 1 h and 3 h after start of inhalation, and in the morning of Day 2, at approx. 24 h after start of inhalation. Moreover, any spontaneous sputum expectoration between 0-1 h after start of inhalation was collected.
Spontaneous sputum samples were collected in polystyrene Petri dishes and put on ice immediately. All processing steps had to be performed with cold reagents and on ice whenever possible. Plugs were separated from saliva, but the latter was not discarded. If a sputum sample was taken for both PK and neutrophil elastase activity in sputum analysis, the plug was split in 2 approximately equal parts. One part was processed for PK analysis the other one for evaluation of neutrophil elastase activity in sputum.
For PK processing, the resulting plug was split in approximately 2 equal parts. […] The weight of the sputum samples (SP1+SP3) was determined and all samples were immediately put on dry ice for freezing. […]
as §1

CCCCCCCC[C@@H]1NC(=O)[C@@H]2CCCN2C(=O)[C@H]2CCCN2C(=O)[C@H](Cc2ccc(O)cc2)NC(=O)[C@H](CCCCN)NC(=O)[C@H](CCC(N)=O)NC(=O)[C@@H]2CCCN2C(=O)[C@@H]2CCCN2C(=O)[C@H]([C@@H](C)CC)NC(=O)[C@H](CO)NC(=O)[C@H](C)NC(=O)[C@H]([C@@H](C)O)NC(=O)[C@H](CCC(=O)O)NC1=O [active compound, cyclo(-OctG-Glu-Thr-Ala-Ser-Ile-Pro-Pro-Gln-Lys-Tyr-^DPro-Pro-)] (cyclo([Gly(octyl)]ETASIPPQKY[dP]P))
NOAEL at 28 days ([1]; in vivo, inhaled or intranasal, rat, inhalation 100 min per day for 28 days, read-out: No Observed Adverse Effect Level (NOAEL)): 119 mg/kg/day
Body weight gain ([1]; male rats at 119 mg/kg/day vs vehicle control): Slightly reduced
Clinical signs and ophthalmic findings ([1]; rat, 11, 53 and 119 mg/kg/day): no clinical signs or ophthalmic findings
Clinical pathology (haematology, coagulation, clinical chemistry, urinalysis) ([1]; rat, in vivo): no findings in clinical pathology
Histopathology of the larynx ([1]; rat, in vivo): focal minimal squamous metaplasia without cellular atypia of dysplasia
Histopathology of the lungs ([1]; rat, in vivo): minimal to moderate multifocal alveolar macrophage accumulation
Deaths, serious and other significant adverse events ([2]; healthy subjects, single inhaled doses 20-960 mg): No death, no serious adverse events (AE) and no other significant AE
Inhalation-related adverse events ('cough'), local tolerability ([2]; human, in vivo): three
Number of subjects with AEs ([2]; human, in vivo): 13
Number of treatment-emergent adverse events (TEAEs) ([2]; human, in vivo): 24
Proportion of subjects with AEs ([2]; human, in vivo): 27.1%
Subjects judging overall tolerability as 'very good' or 'good' ([2]; human, in vivo): 97.9%
Tmax ([3]; dose group 1 (80 mg)): 1.3 h
level at 24 h ([3]; dose group 1 (80 mg)): 2.8 ng/mL
half-life ([3]; dose group 1 (80 mg)): 4.1 h
Tmax ([3]; dose group 2 (160 mg)): 1.5 h
level at 24 h ([3]; dose group 2 (160 mg)): 4.4 ng/mL
half-life ([3]; dose group 2 (160 mg)): 3.5 h
Tmax ([3]; dose group 3 (320 mg)): 2.3 h
level at 24 h ([3]; dose group 3 (320 mg)): 15.2 ng/mL
half-life ([3]; dose group 3 (320 mg)): 3.8 h
Detection in sputum at 24 h after inhalation ([4]; all dose groups): still detected
Concentration in sputum relative to plasma ([4]; comparison of FIG. 4 and FIG. 3): approximately 10^3 fold
